Results as given in patent US20260130395A1, “Water Dispersible Botanical Compositions” (Aquila Black Limited, priority 2021, published 2026).

Assay: Stability of cannabinoid compounds and Vitamin E components in Beverage 2 (AB Red) by LCMSMS
Assay type: physicochemical

Measured: Stability of Plant-Derived Cannabinoid Compounds in AB Red

CCCCCc1cc(O)c2c(c1)OC(C)(CCC=C(C)C)C=C2 (centres unmarked) [CBC, cannabichromene]
0.27 µg/mL: stored at 21-25° C., 510 days | stored at 21-25° C., 570 days
0.284 µg/mL: stored at 8° C., 11 days | stored at 8° C., 29 days | stored at 8° C., 270 days
0.266 µg/mL: stored at 8° C., 570 days
0.281 µg/mL: stored at 8° C., 150 days
0.291 µg/mL: stored at 8° C., 24 days
0.287 µg/mL: stored at 8° C., 19 days | stored at 8° C., 22 days | stored at 8° C., 23 days | stored at 8° C., 25 days | stored at 8° C., 26 days | stored at 8° C., 90 days
0.278 µg/mL: stored at 8° C., 60 days | stored at 8° C., 330 days
0.271 µg/mL: stored at 8° C., 540 days
0.285 µg/mL: stored at 8° C., 3 days | stored at 8° C., 12 days | stored at 8° C., 180 days
0.283 µg/mL: stored at 8° C., 16 days
0.282 µg/mL: stored at 8° C., 17 days | stored at 8° C., 30 days | stored at 8° C., 210 days | stored at 8° C., 360 days | stored at 8° C., 390 days | stored at 8° C., 450 days
0.288 µg/mL: stored at 8° C., 9 days | stored at 8° C., 10 days
0.290 µg/mL: stored at 8° C., 0 days
0.292 µg/mL: stored at 8° C., 2 days | stored at 8° C., 15 days
0.29 µg/mL: stored at 21-25° C., 0 days | stored at 21-25° C., 3 days | stored at 21-25° C., 10 days | stored at 21-25° C., 11 days | stored at 21-25° C., 18 days | stored at 21-25° C., 19 days | stored at 21-25° C., 22 days | stored at 21-25° C., 24 days | stored at 21-25° C., 29 days | stored at 21-25° C., 30 days | stored at 21-25° C., 60 days | stored at 21-25° C., 120 days | stored at 21-25° C., 150 days | stored at 21-25° C., 210 days | stored at 21-25° C., 270 days | stored at 21-25° C., 300 days | stored at 21-25° C., 330 days
0.28 µg/mL: stored at 21-25° C., 1 days | stored at 21-25° C., 2 days | stored at 21-25° C., 5 days | stored at 21-25° C., 8 days | stored at 21-25° C., 9 days | stored at 21-25° C., 12 days | stored at 21-25° C., 15 days | stored at 21-25° C., 16 days | stored at 21-25° C., 17 days | stored at 21-25° C., 23 days | stored at 21-25° C., 25 days | stored at 21-25° C., 26 days | stored at 21-25° C., 90 days | stored at 21-25° C., 180 days | stored at 21-25° C., 240 days | stored at 21-25° C., 360 days | stored at 21-25° C., 390 days | stored at 21-25° C., 420 days | stored at 21-25° C., 450 days | stored at 21-25° C., 480 days | stored at 21-25° C., 540 days
0.280 µg/mL: stored at 8° C., 240 days | stored at 8° C., 300 days
0.267 µg/mL: stored at 8° C., 510 days
0.289 µg/mL: stored at 8° C., 1 days | stored at 8° C., 18 days | stored at 8° C., 120 days
0.277 µg/mL: stored at 8° C., 420 days
0.274 µg/mL: stored at 8° C., 480 days
0.286 µg/mL: stored at 8° C., 5 days | stored at 8° C., 8 days
